Results on eleven compounds are retold here after PubChem BioAssay AID272 (DTP/NCI, 2004).

Where “and” joins values, the source holds several entries; their conditions need not be identical. Equal values may be shown once. Results filed as inconclusive are left out.

In the assay the test system is Lewis lung carcinoma i.m., BDF1 mice, T/C %. Put plainly: NCI In Vivo Anticancer Drug Screen. Data for tumor model Lewis Lung Carcinoma (intramuscular) in B6D2F1 (BDF1) mice. The essentials: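 Compound given to mice with transplantable tumours; survival or tumour size compared against the vehicle control group, reported as T divided by C.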

For `COc1cc([C@@H]2c3cc4c(c(O)c3C[C@H]3COC(=O)[C@@H]32)OCO4)cc(OC)c1O`, the T/C is 99 % of control (endpoint: mean tumor weight (est.), dose: 0.12 mg/kg/injection, schedule: Q01DX011 (ip), vehicle: saline, higher = larger tumour); 94 % of control (endpoint: mean tumor weight (est.), dose: 0.25 mg/kg/injection, schedule: Q01DX011 (ip), vehicle: saline, higher = larger tumour); 66 % of control (endpoint: mean tumor weight (est.), dose: 0.5 mg/kg/injection, schedule: Q01DX011 (ip), vehicle: saline, higher = larger tumour).
In the case of `C/C(=C\COc1ccc2ccc(=O)oc2c1)C1=CC(=O)C(C)(C)O1`, the T/C by setting is: (endpoint: mean tumor weight, dose: 100.0 mg/kg/injection, schedule: Q01DX011 (ip), vehicle: saline, higher = larger tumour) 55 % of control; (endpoint: mean tumor weight, dose: 200.0 mg/kg/injection, schedule: Q01DX011 (ip), vehicle: saline, higher = larger tumour) 47 % of control; (endpoint: mean tumor weight, dose: 400.0 mg/kg/injection, schedule: Q01DX011 (ip), vehicle: saline, higher = larger tumour) 62 % of control; (endpoint: median survival time, dose: 100.0 mg/kg/injection, schedule: Q01DX011 (ip), vehicle: saline, higher = longer survival) 108 % of control; (endpoint: median survival time, dose: 200.0 mg/kg/injection, schedule: Q01DX011 (ip), vehicle: saline, higher = longer survival) 100 % of control; (endpoint: median survival time, dose: 400.0 mg/kg/injection, schedule: Q01DX011 (ip), vehicle: saline, higher = longer survival) 102 % of control.
Turning to `O=c1[nH]c(=O)n([C@H]2CCCO2)cc1F`, the T/C (endpoint: mean tumor weight (est.), dose: 39.0 mg/kg/injection, schedule: Q01DX011 (ip), vehicle: saline, higher = larger tumour) was 112 % of control; the T/C (endpoint: mean tumor weight (est.), dose: 65.0 mg/kg/injection, schedule: Q01DX011 (ip), vehicle: saline, higher = larger tumour) was 40 % of control; the T/C (endpoint: median survival time, dose: 25.0 mg/kg/injection, schedule: Q04DX004 (ip), vehicle: other, higher = longer survival) was 112 % of control; the T/C (endpoint: median survival time, dose: 39.0 mg/kg/injection, schedule: Q01DX011 (ip), vehicle: saline, higher = longer survival) was 90 % of control; the T/C (endpoint: median survival time, dose: 50.0 mg/kg/injection, schedule: Q04DX004 (ip), vehicle: other, higher = longer survival) was 100 % of control; the T/C (endpoint: median survival time, dose: 65.0 mg/kg/injection, schedule: Q01DX011 (ip), vehicle: saline, higher = longer survival) is 119 % of control. For the same compound, the T/C is, setting by setting: (endpoint: median survival time, dose: 100.0 mg/kg/injection, schedule: Q04DX004 (ip), vehicle: other, higher = longer survival) 100 % of control; (endpoint: median survival time, dose: 200.0 mg/kg/injection, schedule: Q04DX004 (ip), vehicle: other, higher = longer survival) 103 % of control.
Consider `COc1cc(C(=O)OC2CC34CCNC35CC(OC5(OC)C2O)c2cc3c(cc24)OCO3)ccc1O` (centres undefined), for which the T/C is, setting by setting: (endpoint: mean tumor weight, dose: 1.0 mg/kg/injection, schedule: Q01DX011 (ip), vehicle: carboxymethylcellulose (CMC), higher = larger tumour) 81 % of control; (endpoint: mean tumor weight, dose: 2.0 mg/kg/injection, schedule: Q01DX011 (ip), vehicle: carboxymethylcellulose (CMC), higher = larger tumour) 70 % of control; (endpoint: mean tumor weight, dose: 4.0 mg/kg/injection, schedule: Q01DX011 (ip), vehicle: carboxymethylcellulose (CMC), higher = larger tumour) 49 % of control; (endpoint: median survival time, dose: 2.0 mg/kg/injection, schedule: Q01DX011 (ip), vehicle: carboxymethylcellulose (CMC), higher = longer survival) 91 % of control; (endpoint: median survival time, dose: 4.0 mg/kg/injection, schedule: Q01DX011 (ip), vehicle: carboxymethylcellulose (CMC), higher = longer survival) 86 % of control.
In the case of `CCOC(=O)c1nc(C)[nH]c(=O)c1C`, the T/C was 94 % of control (endpoint: median survival time, dose: 4.0 mg/kg/injection, schedule: Q01DX009 (ip), vehicle: water, higher = longer survival); 109 % of control (endpoint: median survival time, dose: 8.0 mg/kg/injection, schedule: Q01DX009 (ip), vehicle: water, higher = longer survival); 104 % of control (endpoint: median survival time, dose: 16.0 mg/kg/injection, schedule: Q01DX009 (ip), vehicle: water, higher = longer survival); 100 % of control (endpoint: median survival time, dose: 64.0 mg/kg/injection, schedule: Q01DX009 (ip), vehicle: water, higher = longer survival).
Turning to `S=P(N1CC1)(N1CC1)N1CC1`, the T/C was 92 % of control (endpoint: median survival time, dose: 1.5 mg/kg/injection, schedule: Q01DX011 (ip), vehicle: water, higher = longer survival); 110 % of control and 119 % of control (endpoint: median survival time, dose: 3.0 mg/kg/injection, schedule: Q01DX011 (ip), vehicle: water, higher = longer survival); 86 % of control (endpoint: median survival time, dose: 6.0 mg/kg/injection, schedule: Q01DX011 (ip), vehicle: water, higher = longer survival).
Take `CN(N=O)C(N)=O`: the T/C is, setting by setting: (endpoint: median survival time, dose: 3.12 mg/kg/injection, schedule: Q01DX015 (ip), vehicle: saline, higher = longer survival) 98 % of control; (endpoint: median survival time, dose: 6.25 mg/kg/injection, schedule: Q01DX015 (ip), vehicle: saline, higher = longer survival) 103 % of control; (endpoint: median survival time, dose: 6.25 mg/kg/injection, schedule: Q07DX003 (ip), vehicle: saline, higher = longer survival) 94 % of control; (endpoint: median survival time, dose: 12.5 mg/kg/injection, schedule: Q01DX015 (ip), vehicle: saline, higher = longer survival) 115 % of control; (endpoint: median survival time, dose: 12.5 mg/kg/injection, schedule: Q07DX003 (ip), vehicle: saline, higher = longer survival) 93 % of control; (endpoint: median survival time, dose: 25.0 mg/kg/injection, schedule: Q07DX003 (ip), vehicle: saline, higher = longer survival) 86 % of control.
For the compound `CCCCCCCCCCCCCCCCCC[n+]1cccc(C(=O)N2CCOCC2)c1`, the T/C (endpoint: mean tumor weight (est.), dose: 2.0 mg/kg/injection, schedule: Q01DX011 (ip), vehicle: saline, higher = larger tumour) is 82 % of control; the T/C (endpoint: mean tumor weight (est.), dose: 4.0 mg/kg/injection, schedule: Q01DX011 (ip), vehicle: saline, higher = larger tumour) was 83 % of control; the T/C (endpoint: mean tumor weight (est.), dose: 8.0 mg/kg/injection, schedule: Q01DX011 (ip), vehicle: saline, higher = larger tumour) is 71 % of control; the T/C (endpoint: mean tumor weight (est.), dose: 16.0 mg/kg/injection, schedule: Q01DX011 (ip), vehicle: saline, higher = larger tumour) is 64 % of control; the T/C (endpoint: median survival time, dose: 2.0 mg/kg/injection, schedule: Q01DX011 (ip), vehicle: saline, higher = longer survival) is 101 % of control; the T/C (endpoint: median survival time, dose: 4.0 mg/kg/injection, schedule: Q01DX011 (ip), vehicle: saline, higher = longer survival) is 103 % of control. Further, the T/C reads like this: (endpoint: median survival time, dose: 8.0 mg/kg/injection, schedule: Q01DX011 (ip), vehicle: saline, higher = longer survival) 105 % of control; (endpoint: median survival time, dose: 16.0 mg/kg/injection, schedule: Q01DX011 (ip), vehicle: saline, higher = longer survival) 94 % of control.
On to `CC(=O)OC1CC(OC2C(O)CC(OC3C(O)CC(OC4CCC5(C)C(CCC6C5CCC5(C)C(C7=CC(=O)OC7)C(O)CC65O)C4)OC3C)OC2C)OC(C)C1OC1OC(CO)C(O)C(O)C1O` (centres undefined), for which the T/C (endpoint: median survival time, dose: 3.0 mg/kg/injection, schedule: Q01DX011 (ip), vehicle: saline, higher = longer survival) is 106 % of control; the T/C (endpoint: median survival time, dose: 6.0 mg/kg/injection, schedule: Q01DX011 (ip), vehicle: saline, higher = longer survival) was 110 % of control; the T/C (endpoint: median survival time, dose: 12.0 mg/kg/injection, schedule: Q01DX011 (ip), vehicle: saline, higher = longer survival) is 102 % of control; the T/C (endpoint: median survival time, dose: 24.0 mg/kg/injection, schedule: Q01DX011 (ip), vehicle: saline, higher = longer survival) was 104 % of control; the T/C (endpoint: median survival time, dose: 48.0 mg/kg/injection, schedule: Q01DX011 (ip), vehicle: saline, higher = longer survival) is 102 % of control.
Consider `CS(=O)(=O)c1cc(C(F)(F)F)cc([N+](=O)[O-])c1Cl`, for which the T/C runs as follows: (endpoint: mean tumor weight (est.), dose: 25.0 mg/kg/injection, schedule: Q01DX011 (ip), vehicle: saline with Tween-80, higher = larger tumour) 108 % of control; (endpoint: mean tumor weight (est.), dose: 50.0 mg/kg/injection, schedule: Q01DX011 (ip), vehicle: saline with Tween-80, higher = larger tumour) 63 % of control; (endpoint: median survival time, dose: 25.0 mg/kg/injection, schedule: Q01DX011 (ip), vehicle: saline with Tween-80, higher = longer survival) 115 % of control; (endpoint: median survival time, dose: 50.0 mg/kg/injection, schedule: Q01DX011 (ip), vehicle: saline with Tween-80, higher = longer survival) 111 % of control.
For `CCCCn1cnc2c(=S)nc[nH]c21`, the T/C was 89 % of control (endpoint: mean tumor weight, dose: 1.56 mg/kg/injection, schedule: Q01DX011 (ip), vehicle: other, higher = larger tumour); 85 % of control (endpoint: mean tumor weight, dose: 6.25 mg/kg/injection, schedule: Q01DX011 (ip), vehicle: other, higher = larger tumour); 94 % of control and 104 % of control (endpoint: median survival time, dose: 1.56 mg/kg/injection, schedule: Q01DX011 (ip), vehicle: other, higher = longer survival); 100 % of control (endpoint: median survival time, dose: 3.12 mg/kg/injection, schedule: Q01DX011 (ip), vehicle: other, higher = longer survival); 97 % of control and 108 % of control (endpoint: median survival time, dose: 6.25 mg/kg/injection, schedule: Q01DX011 (ip), vehicle: other, higher = longer survival); 110 % of control (endpoint: median survival time, dose: 12.5 mg/kg/injection, schedule: Q01DX011 (ip), vehicle: other, higher = longer survival). Moreover, under “endpoint: median survival time, dose: 25.0 mg/kg/injection, schedule: Q01DX011 (ip), vehicle: other, higher = longer survival”, the T/C is 116 % of control.
